Six compounds from PubChem BioAssay AID463100 (The Scripps Research Institute Molecular Screening Center, 2010) can be followed below.

The assay has as its system VIM-2-transformed E. coli growth with imipenem, MIC. Description: growth inhibition of VIM-2-expressing E. coli with imipenem, late-stage follow-up, counter-screen for IMP-1 and VIM-2 inhibitor project, VIM-2-transformed E. coli, imipenem co-treatment (AID 463100). (In general: A counterscreen serves to expose hits that act by an unwanted route or on another target.)

Regarding `COc1cccc[c]1[Hg+]`, the MIC was 0.781 µM.

For the compound `Cc1cc[c]([Hg+])cc1`, the MIC was 0.651 µM.

Turning to `O=C(O)c1cc[c]([Hg][Cl])cc1`, the MIC was 9.37 µM.

Turning to `[Hg+][c]1ccccc1`, the minimum inhibitory concentration (MIC) is 0.625 µM.

For the compound `O=C(O)c1ccc[c]([Hg+])c1`, the minimum inhibitory concentration (MIC) is 2.08 µM.

As for `CC(=O)Nc1cc[c]([Hg+])cc1`, the MIC is 2.5 µM.

What is called MIC is the smallest concentration in the dilution series that meets the test's criterion for growth inhibition.
